Test results taken from PMC10873254, “Preclinical evaluation of new GRPR-antagonists with improved metabolic stability for radiotheranostic use in oncology” (EJNMMI Radiopharmacy and Chemistry, 2024).
Like-named read-outs stand apart in the source and are kept apart here. Marks after values point to notes of the source that are not given here.

Assays:
in vivo = experiment: in vivo; parameters: species or system BALB/c nu/nu female mice; details: female, BALB/c nu/nu, mouse, iv, total radioactivity
Source text: (§1) Animal experiments were planned and performed in accordance with national legislation on protection of laboratory animals, and protocols were approved by the Ethics Committee for Animal Research in Uppsala, Sweden (5.8.18–00473/2021). BALB/c nu/nu female mice were xenografted by subcutaneous injection of PC-3 cells on the hind leg (7 × 10^6 cells/mouse). At the date of the experiment, approximately 6 weeks after implantation, tumour sizes reached 0.11 ± 0.05 g. Groups of four mice were used for each time point. In the first group, mice were iv injected with test radiopeptide (30 kBq in 100 µL PBS supplemented with 1% bovine serum albumin (BSA), corresponding to 40 pmol) and euthanized at 4 h pi. Tumors and relevant organs were collected, weighted and sample radioactivity was measured using the gamma counter. In the case of [^111In]In-AU-SAR-M1 two additional mice groups underwent the same procedure but were euthanized either at 24 h pi, or at 4 h pi following radioligand co-injection with excess (5 nmol) NOTA-PEG2-RM26 to determine the in vivo GRPR-specificity. For statistical analysis Two-Way Anova with Tuckey’s post hock analysis was employed, using GraphPad Prism 7 for Windows® (GraphPad Software, Boston, Massachusetts USA).

PC-3 xenografts = experiment: in vivo; parameters: species or system BALB/c nu/nu female mice; details: mouse
Source text: as §1

GRPR = target: T1, GRPR (Homo sapiens, UniProt P30550); experiment: GRPR binding affinity and kinetics on PC-3 cells (LigandTracer); details: 1-3 nM radioligand
T1 construct: host or cells: PC-3 human prostate adenocarcinoma cells
Experimental: For evaluation of the receptor affinity and binding kinetics, PC-3 cells were seeded in 100 mm Nunc™ Petri dishes (Thermo Fisher, Waltham, MA, USA). A LigandTracer Yellow device (Ridgeview Instruments AB, Uppsala, Sweden) was used to measure the radiation from the Petri dish. Background with RPMI-1640 medium was measured for 30 min, after which 1 nM of radioligand was added and measured for 2 h. An additional concentration (3 nM) was measured for another 2 h, thereafter the medium was aspirated, replaced with fresh medium, and left running overnight to measure the dissociation rate. Data was fitted with the TracerDrawer software (Ridgeview Instruments AB, Uppsala, Sweden).

[1] = 40 pmol, GI (gastrointestinal tract) uptake
[2] = 40 pmol, Small intestines uptake
[3] = 40 pmol, Tumor-to-kidneys ratio
[4] = 40 pmol, Tumor-to-pancreas ratio
[5] = female, BALB/c nu/nu, iv, 40 pmol, 4 h
[6] = 1:2 model for M1 and M3, 1:1 model for M2, read-out: KD1

T1 sequence (P30550 whole entry): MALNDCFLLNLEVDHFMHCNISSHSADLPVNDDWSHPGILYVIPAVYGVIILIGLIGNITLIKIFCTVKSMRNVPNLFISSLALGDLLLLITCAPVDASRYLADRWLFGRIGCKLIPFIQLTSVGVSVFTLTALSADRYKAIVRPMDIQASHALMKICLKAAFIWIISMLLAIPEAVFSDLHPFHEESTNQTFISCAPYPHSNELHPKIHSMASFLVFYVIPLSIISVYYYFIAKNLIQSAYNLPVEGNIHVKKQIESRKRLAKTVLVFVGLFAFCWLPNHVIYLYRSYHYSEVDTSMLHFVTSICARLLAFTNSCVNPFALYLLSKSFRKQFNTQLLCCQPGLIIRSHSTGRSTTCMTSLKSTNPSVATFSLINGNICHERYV

## CCNC(=O)[C@H](CC(C)C)NC(=O)[C@H](Cc1c[nH]cn1)NC(=O)CN(C)C(=O)[C@@H](NC(=O)[C@H](C)NC(=O)[C@H](Cc1c[nH]c2ccccc12)NC(=O)[C@H](CCC(N)=O)NC(=O)[C@@H](Cc1ccccc1)NC(=O)COCC(=O)Nc1ccc(CNC(=O)CCC(C(=O)O)N2CCN(CC(=O)O)CCN(CC(=O)O)CCN(CC(=O)O)CC2)cc1)C(C)C (stereo partly drawn) [[^111In]In-AU-SAR-M1, [^111In]In-DOTAGA-AMA-DIG-DPhe-Gln-Trp-Ala-Val-Sar-His-Leu-NHEt, metal not drawn]
In vivo; 40 pmol, Blood uptake
  tissue uptake at 4 h: 0.08 ± 0.03 %ID/g
  tissue uptake at 24 h: 0.01 ± 0.001 %ID/g
In vivo; 40 pmol, Bone uptake
  tissue uptake at 4 h: 0.3 ± 0.3 %ID/g
  tissue uptake at 24 h: 0.04 ± 0.02 %ID/g
In vivo; 40 pmol, Carcass uptake
  tissue uptake dose at 4 h: 4 ± 2 %ID
  tissue uptake dose at 24 h: 0.48 ± 0.07 %ID
In vivo; [1]
  tissue uptake dose at 4 h: 2 ± 0.9 %ID
  tissue uptake dose at 24 h: 0.62 ± 0.49 %ID
In vivo; 40 pmol, Kidneys uptake
  tissue uptake at 4 h: 3.1 ± 0.3 %ID/g
  tissue uptake at 24 h: 2.38 ± 0.14 %ID/g
In vivo; 40 pmol, Liver uptake
  tissue uptake at 4 h: 0.2 ± 0.1 %ID/g
  tissue uptake at 24 h: 0.09 ± 0.01 %ID/g
In vivo; 40 pmol, Lungs uptake
  tissue uptake at 4 h: 0.2 ± 0.2 %ID/g
  tissue uptake at 24 h: 0.04 ± 0.003 %ID/g
In vivo; 40 pmol, Muscle uptake
  tissue uptake at 4 h: 0.09 ± 0.06 %ID/g
  tissue uptake at 24 h: 0.02 ± 0.01 %ID/g
In vivo; 40 pmol, Pancreas uptake
  tissue uptake at 4 h: 2 ± 1 %ID/g
  tissue uptake at 24 h: 0.12 ± 0.03 %ID/g
In vivo; [2]
  tissue uptake at 4 h: 0.8 ± 0.5 %ID/g
  tissue uptake at 24 h: 0.07 ± 0.03 %ID/g
In vivo; 40 pmol, Spleen uptake
  tissue uptake at 4 h: 0.12 ± 0.05 %ID/g
  tissue uptake at 24 h: 0.1 ± 0.04 %ID/g
In vivo; 40 pmol, Tumor uptake
  tissue uptake at 4 h: 11 ± 1 %ID/g
  tissue uptake at 24 h: 6.3 ± 0.8 %ID/g
In vivo; 40 pmol, Tumor-to-blood ratio
  tissue to tissue ratio at 4 h: 160
  tissue to tissue ratio at 24 h: > 550
In vivo; 40 pmol, Tumor-to-bone ratio
  tissue to tissue ratio: > 150
  tissue to tissue ratio at 4 h: 74 ± 68
  tissue to tissue ratio at 24 h: 173 ± 72
In vivo; [3]
  tissue to tissue ratio at 4 h: 3.6 ± 0.2
  tissue to tissue ratio at 24 h: 2.7 ± 0.2
In vivo; 40 pmol, Tumor-to-liver ratio
  tissue to tissue ratio at 4 h: 65 ± 22
  tissue to tissue ratio at 24 h: 67 ± 6
In vivo; 40 pmol, Tumor-to-lungs ratio
  tissue to tissue ratio at 4 h: 68 ± 39
  tissue to tissue ratio at 24 h: 174 ± 29
In vivo; 40 pmol, Tumor-to-muscle ratio
  tissue to tissue ratio at 4 h: 167 ± 102
  tissue to tissue ratio at 24 h: 375 ± 95
In vivo; [4]
  tissue to tissue ratio at 4 h: 9 ± 11
  tissue to tissue ratio at 24 h: 57 ± 18
In vivo; 40 pmol, Tumor-to-spleen ratio
  tissue to tissue ratio at 4 h: 61 ± 19
  tissue to tissue ratio at 24 h: 70 ± 20
In vivo; Carcass uptake
  tissue uptake dose at 4 h: 1.1 ± 0.6 %ID
In vivo; GI (gastrointestinal tract) uptake
  tissue uptake dose at 4 h: 1.5 ± 0.3 %ID
PC-3 xenografts; [5]
  Tumor-to-blood ratio: 141 ± 61^a
  Tumor-to-pancreas ratio: 8 ± 7
PC-3 xenografts; female, BALB/c nu/nu, iv, 40 pmol, 24 h
  Tumor-to-blood ratio: 557 ± 58^ a
PC-3 xenografts
  Decrease of tumor uptake from 4 h to 24 h pi: ~40%
  Increase of tumor-to-muscle ratio from 4 h to 24 h pi: about 1.8 fold
  Initial pancreas uptake remaining at 24 h pi: 5%
  Tumor uptake at 24 h pi as % of the 4 h pi value: 57%
GRPR; [6]
  Kd: 0.39 nM
GRPR; 1:2 model, read-out: KD2
  Kd: 1.1 nM

## CCNC(=O)[C@H](CC(C)C)NC(=O)[C@H](Cc1c[nH]cn1)NC(=O)CN(C)C(=O)[C@@H](NC(=O)[C@H](C)NC(=O)[C@H](Cc1c[nH]c2ccccc12)NC(=O)[C@H](CCC(N)=O)NC(=O)[C@@H](Cc1ccccc1)NC(=O)COCC(=O)Nc1ccc(CNC(=O)[C@H](CCCNC(=N)N)NC(=O)CCC(C(=O)O)N2CCN(CC(=O)O)CCN(CC(=O)O)CCN(CC(=O)O)CC2)cc1)C(C)C (stereo partly shown) [[^111In]In-AU-SAR-M2, [^111In]In-[DOTAGA-Arg]AU-SAR-M1, metal not drawn]
In vivo; 40 pmol, Blood uptake
  tissue uptake at 4 h: 0.08 ± 0.01 %ID/g
In vivo; 40 pmol, Bone uptake
  tissue uptake at 4 h: 0.23 ± 0.04 %ID/g
In vivo; 40 pmol, Carcass uptake
  tissue uptake dose at 4 h: 4 ± 2 %ID
In vivo; [1]
  tissue uptake dose at 4 h: 2.9 ± 0.3 %ID
In vivo; 40 pmol, Kidneys uptake
  tissue uptake at 4 h: 3.4 ± 0.4 %ID/g
In vivo; 40 pmol, Liver uptake
  tissue uptake at 4 h: 0.3 ± 0.1 %ID/g
In vivo; 40 pmol, Lungs uptake
  tissue uptake at 4 h: 0.2 ± 0.1 %ID/g
In vivo; 40 pmol, Muscle uptake
  tissue uptake at 4 h: 0.09 ± 0.04 %ID/g
In vivo; 40 pmol, Pancreas uptake
  tissue uptake at 4 h: 9 ± 2 %ID/g
In vivo; [2]
  tissue uptake at 4 h: 2.4 ± 0.9 %ID/g
In vivo; 40 pmol, Spleen uptake
  tissue uptake at 4 h: 0.3 ± 0.1 %ID/g
In vivo; 40 pmol, Tumor uptake
  tissue uptake at 4 h: 12.7 ± 0.8 %ID/g
In vivo; 40 pmol, Tumor-to-blood ratio
  tissue to tissue ratio at 4 h: 159 ± 32
In vivo; 40 pmol, Tumor-to-bone ratio
  tissue to tissue ratio at 4 h: 58 ± 12
In vivo; [3]
  tissue to tissue ratio at 4 h: 3.8 ± 0.6
In vivo; 40 pmol, Tumor-to-liver ratio
  tissue to tissue ratio at 4 h: 47 ± 14
In vivo; 40 pmol, Tumor-to-lungs ratio
  tissue to tissue ratio at 4 h: 63 ± 22
In vivo; 40 pmol, Tumor-to-muscle ratio
  tissue to tissue ratio at 4 h: 161 ± 74
In vivo; [4]
  tissue to tissue ratio at 4 h: 1.4 ± 0.3
In vivo; 40 pmol, Tumor-to-spleen ratio
  tissue to tissue ratio at 4 h: 46 ± 11
PC-3 xenografts
  Tumor-to-small intestines ratio: 6 ± 2
GRPR; [6]
  Kd: 0.031 nM

## CCNC(=O)[C@H](CC(C)C)NC(=O)[C@H](Cc1c[nH]cn1)NC(=O)CN(C)C(=O)[C@@H](NC(=O)[C@H](C)NC(=O)[C@H](Cc1c[nH]c2ccccc12)NC(=O)[C@H](CCC(N)=O)NC(=O)[C@@H](Cc1ccccc1)NC(=O)COCC(=O)Nc1ccc(CNC(=O)[C@@H](CCCNC(=N)N)NC(=O)CCC(C(=O)O)N2CCN(CC(=O)O)CCN(CC(=O)O)CCN(CC(=O)O)CC2)cc1)C(C)C (stereo partly shown) [[^111In]In-AU-SAR-M3, [^111In]In-[DOTAGA-DArg]AU-SAR-M1, metal not drawn]
In vivo; 40 pmol, Blood uptake
  tissue uptake at 4 h: 0.05 ± 0.01 %ID/g
In vivo; 40 pmol, Bone uptake
  tissue uptake at 4 h: 0.17 ± 0.04 %ID/g
In vivo; 40 pmol, Carcass uptake
  tissue uptake dose at 4 h: 2.1 ± 0.2 %ID
In vivo; [1]
  tissue uptake dose at 4 h: 0.7 ± 0.2 %ID
In vivo; 40 pmol, Kidneys uptake
  tissue uptake at 4 h: 5 ± 0.5 %ID/g
In vivo; 40 pmol, Liver uptake
  tissue uptake at 4 h: 0.25 ± 0.02 %ID/g
In vivo; 40 pmol, Lungs uptake
  tissue uptake at 4 h: 0.15 ± 0.03 %ID/g
In vivo; 40 pmol, Muscle uptake
  tissue uptake at 4 h: 0.07 ± 0.03 %ID/g
In vivo; 40 pmol, Pancreas uptake
  tissue uptake at 4 h: 0.5 ± 0.1 %ID/g
In vivo; [2]
  tissue uptake at 4 h: 0.2 ± 0.2 %ID/g
In vivo; 40 pmol, Spleen uptake
  tissue uptake at 4 h: 0.18 ± 0.03 %ID/g
In vivo; 40 pmol, Tumor uptake
  tissue uptake at 4 h: 6.7 ± 0.3 %ID/g
In vivo; 40 pmol, Tumor-to-blood ratio
  tissue to tissue ratio at 4 h: 147 ± 43
In vivo; 40 pmol, Tumor-to-bone ratio
  tissue to tissue ratio at 4 h: 41 ± 9
In vivo; [3]
  tissue to tissue ratio at 4 h: 1.4 ± 0.1
In vivo; 40 pmol, Tumor-to-liver ratio
  tissue to tissue ratio at 4 h: 27 ± 3
In vivo; 40 pmol, Tumor-to-lungs ratio
  tissue to tissue ratio at 4 h: 47 ± 14
In vivo; 40 pmol, Tumor-to-muscle ratio
  tissue to tissue ratio at 4 h: 107 ± 63
In vivo; [4]
  tissue to tissue ratio at 4 h: 14 ± 3
In vivo; 40 pmol, Tumor-to-spleen ratio
  tissue to tissue ratio at 4 h: 39 ± 8
PC-3 xenografts
  Tumor-to-small intestines ratio: 25 ± 7
GRPR; [6]
  Kd: 0.3 nM
GRPR; read-out: KD2, 1:2 model
  Kd: 1.1 nM
